# Source: US20120115724A1, “METHOD OF CONTROLLING UNDESIRED VEGETATION” (SYNGENTA CROP PROTECTION LLC, priority 2009, published 2012)
# Columns and labels:
# Assay type in all cases: in vivo
# [1] = system: Amaranthus retroflexus (AMARE); assay: Pre-emergence biological efficacy (Example 13); settings: pre-emergence, 1,000 g/ha, after 13 days; for pest or weed control at 1000 g/ha: Amaranthus retroflexus, 312 h, read-out: Percentage damage AMARE
# Procedure: (§1) Seeds of Alopecurus myosuroides (ALOMY), Setaria faberi (SETFA), Echinochloa crus-galli (ECHCG), Solanum nigrum (SOLNI), Amaranthus retroflexus (AMARE) and Ipomea hederaceae (IPOHE) were sown in standard soil in pots. After cultivation for one day under controlled conditions in a glasshouse (at 24/16° C., day/night; 14 hours light; 65% humidity), the plants were sprayed with an aqueous spray solution derived from the formulation of the technical active ingredient in acetone/water (50:50) solution containing 0.5% Tween 20 (polyoxyethylene sorbitan monolaurate, CAS RN 9005-64-5) to give a final dose of 250 or 1000g/ha of test compound. The test plants were then grown under controlled conditions in the glasshouse (at 24/16° C., day/night; 14 hours light; 65% humidity) and watered twice daily. After 13 days the test was evaluated (100 =total damage to plant; 0 =no damage to plant).
# [2] = system: Echinochloa crus-galli (ECHCG); assay: Pre-emergence biological efficacy (Example 13); settings: pre-emergence, 1,000 g/ha, after 13 days; for pest or weed control at 1000 g/ha: Echinochloa crus-galli, 312 h, read-out: Percentage damage ECHCG
# Procedure: as §1
# Solanum nigrum (SOLNI) [3] = assay: Pre-emergence biological efficacy (Example 13); settings: pre-emergence, 1,000 g/ha, after 13 days; for pest or weed control at 1000 g/ha: Solanum nigrum, 312 h, read-out: Percentage damage SOLNI
# Procedure: as §1
# Setaria faberi (SETFA) [4] = assay: Pre-emergence biological efficacy (Example 13); settings: pre-emergence, 1,000 g/ha, after 13 days; for pest or weed control at 1000 g/ha: Setaria faberi, 312 h, read-out: Percentage damage SETFA
# Procedure: as §1
# [5] = system: Alopecurus myosuroides (ALOMY); assay: Pre-emergence biological efficacy (Example 13); settings: pre-emergence, 1,000 g/ha, after 13 days; for pest or weed control at 1000 g/ha: Alopecurus myosuroides, 312 h, read-out: Percentage damage ALOMY
# Procedure: as §1
# [6] = system: Ipomea hederaceae (IPOHE); assay: Pre-emergence biological efficacy (Example 13); settings: pre-emergence, 1,000 g/ha, after 13 days; for pest or weed control at 1000 g/ha: Ipomoea hederacea, 312 h, read-out: Percentage damage IPOHE
# Procedure: as §1
# [7] = system: Amaranthus retroflexus (AMARE); assay: Post-emergence biological efficacy (Example 14); settings: post-emergence, 1,000 g/ha, after 13 days; for pest or weed control at 1000 g/ha: Amaranthus retroflexus, 312 h, read-out: Percentage damage AMARE
# Procedure: as §1, with “for 8 days” for “for one day”, “or 1000 g/ha” for “or 1000g/ha”, “grown on” for “grown”, “in a” for “in the”, “evaluated (100=total” for “evaluated (100 =total”, “plant; 0=no” for “plant; 0 =no”
# [8] = system: Echinochloa crus-galli (ECHCG); assay: Post-emergence biological efficacy (Example 14); settings: post-emergence, 1,000 g/ha, after 13 days; for pest or weed control at 1000 g/ha: Echinochloa crus-galli, 312 h, read-out: Percentage damage ECHCG
# Procedure: as §1, with “for 8 days” for “for one day”, “or 1000 g/ha” for “or 1000g/ha”, “grown on” for “grown”, “in a” for “in the”, “evaluated (100=total” for “evaluated (100 =total”, “plant; 0=no” for “plant; 0 =no”
# Solanum nigrum (SOLNI) [9] = assay: Post-emergence biological efficacy (Example 14); settings: post-emergence, 1,000 g/ha, after 13 days; for pest or weed control at 1000 g/ha: Solanum nigrum, 312 h, read-out: Percentage damage SOLNI
# Procedure: as §1, with “for 8 days” for “for one day”, “or 1000 g/ha” for “or 1000g/ha”, “grown on” for “grown”, “in a” for “in the”, “evaluated (100=total” for “evaluated (100 =total”, “plant; 0=no” for “plant; 0 =no”
# Setaria faberi (SETFA) [10] = assay: Post-emergence biological efficacy (Example 14); settings: post-emergence, 1,000 g/ha, after 13 days; for pest or weed control at 1000 g/ha: Setaria faberi, 312 h, read-out: Percentage damage SETFA
# Procedure: as §1, with “for 8 days” for “for one day”, “or 1000 g/ha” for “or 1000g/ha”, “grown on” for “grown”, “in a” for “in the”, “evaluated (100=total” for “evaluated (100 =total”, “plant; 0=no” for “plant; 0 =no”
# [11] = system: Alopecurus myosuroides (ALOMY); assay: Post-emergence biological efficacy (Example 14); settings: post-emergence, 1,000 g/ha, after 13 days; for pest or weed control at 1000 g/ha: Alopecurus myosuroides, 312 h, read-out: Percentage damage ALOMY
# Procedure: as §1, with “for 8 days” for “for one day”, “or 1000 g/ha” for “or 1000g/ha”, “grown on” for “grown”, “in a” for “in the”, “evaluated (100=total” for “evaluated (100 =total”, “plant; 0=no” for “plant; 0 =no”
# [12] = system: Ipomea hederaceae (IPOHE); assay: Post-emergence biological efficacy (Example 14); settings: post-emergence, 1,000 g/ha, after 13 days; for pest or weed control at 1000 g/ha: Ipomoea hederacea, 312 h, read-out: Percentage damage IPOHE
# Procedure: as §1, with “for 8 days” for “for one day”, “or 1000 g/ha” for “or 1000g/ha”, “grown on” for “grown”, “in a” for “in the”, “evaluated (100=total” for “evaluated (100 =total”, “plant; 0=no” for “plant; 0 =no”
Structure (SMILES),pest or weed control at 1000 g/ha [1] [%],pest or weed control at 1000 g/ha [2] [%],pest or weed control at 1000 g/ha (Solanum nigrum (SOLNI) [3]) [%],pest or weed control at 1000 g/ha (Setaria faberi (SETFA) [4]) [%],pest or weed control at 1000 g/ha [5] [%],pest or weed control at 1000 g/ha [6] [%],pest or weed control at 1000 g/ha [7] [%],pest or weed control at 1000 g/ha [8] [%],pest or weed control at 1000 g/ha (Solanum nigrum (SOLNI) [9]) [%],pest or weed control at 1000 g/ha (Setaria faberi (SETFA) [10]) [%],pest or weed control at 1000 g/ha [11] [%],pest or weed control at 1000 g/ha [12] [%],further results
"C=Cc1c(NCc2ccco2)nc(-c2ccc(Cl)c(OC)c2F)nc1C(=O)OCc1ccccc1 [Compound 47, 2-(4-Chloro-2-fluoro-3-methoxyphenyl)-5-ethenyl-4-(furan-2-ylmethylamino)-6-phenylmethoxy-carbonyl-pyrimidine]",70,90,80,50,30,80,100,80,80,80,60,80,–
"C=Cc1c(NCc2ccco2)nc(-c2ccc(Cl)c(OC)c2F)nc1C(=O)OCCOCC [Compound 48, 2-(4-Chloro-2-fluoro-3-methoxyphenyl)-5-ethenyl-6-(2-ethoxy-ethoxy)carbonyl-4-(furan-2-ylmethylamino)-pyrimidine]",0,0,0,0,0,0,40,0,50,0,0,60,–
"C=Cc1c(NCc2ccccc2[N+](=O)[O-])nc(-c2ccc(Cl)c(N(C)C)c2F)nc1C(=O)OC [Compound 16, 2-(4-Chloro-3-dimethylamino-2-fluorophenyl)-5-ethenyl-6-methoxycarbonyl-4-(2-nitrophenylmethyl-amino)-pyrimidine]",50,70,30,70,60,0,100,70,80,90,70,60,–
"C=Cc1c(NCc2ccccc2F)nc(-c2ccc(Cl)c(OC)c2F)nc1C(=O)OC [Compound 14, 2-(4-Chloro-2-fluoro-3-methoxyphenyl)-5-ethenyl-4-(2-fluorophenylmethylamino)-6-methoxycarbonyl-pyrimi-dine]",20,0,60,0,0,50,100,0,90,0,0,60,–
"C=Cc1c(N)nc(-c2ccc(Cl)c(N(C)C)c2F)nc1C(=O)OCCOCCCC [Compound 46, 4-Amino-6-(2- ^nbutoxy-ethoxy)carbonyl-2-(4-chloro-3-dimethylamino-2-fluorophenyl)-5-ethenyl-pyrimidine]",–,–,–,–,–,–,–,–,–,–,–,–,Percentage damage AMARE [1]: 100%; Percentage damage ECHCG [2]: 100%; Percentage damage SOLNI (Solanum nigrum (SOLNI) [3]): 100%; Percentage damage SETFA (Setaria faberi (SETFA) [4]): 90%; Percentage damage ALOMY [5]: 80%; Percentage damage IPOHE [6]: 50%; Percentage damage AMARE [7]: 100%; Percentage damage ECHCG [8]: 90%; Percentage damage SOLNI (Solanum nigrum (SOLNI) [9]): 90%; Percentage damage SETFA (Setaria faberi (SETFA) [10]): 90%; Percentage damage ALOMY [11]: 80%; Percentage damage IPOHE [12]: 80%
"C=Cc1c(NCc2ccco2)nc(-c2ccc(Cl)c(N(C)C)c2F)nc1C(=O)OC [Compound 13, 2-(4-Chloro-3-dimethylamino-2-fluorophenyl)-5-ethenyl-4-(furan-2-ylmethylamino)-6-methoxycarbonyl-pyrimi-dine]",90,90,90,60,70,20,100,80,100,80,70,40,–
"C=Cc1c(NCc2ccco2)nc(-c2ccc(Cl)c(OC)c2F)nc1C(=O)O [Compound 35, 2-(4-Chloro-2-fluoro-3-methoxyphenyl)-5-ethenyl-4-(furan-2-ylmethylamino)-pyrimidine-6-carboxylic acid]",100,90,100,90,70,100,100,80,90,80,70,70,–
"C/C=C/c1c(N)nc(-c2ccc(Cl)c(N(C)C)c2F)nc1C(=O)OC [Compound 12, (E)-4-Amino-2-(4-chloro-3-dimethylamino-2-fluorophenyl)-6-methoxy-carbonyl-5-(prop-1-enyl)-pyrimidine]",100,90,80,80,70,0,100,80,80,80,80,40,–
"C=Cc1c(N)nc(-c2ccc(Cl)c(N(C)C)c2F)nc1C(=O)OCCCCCCCC [Compound 41, 4-Amino-2-(4-chloro-3-dimethylamino-2-fluorophenyl)-5-ethenyl-6- ^noctyloxycarbonyl-pyrimidine]",–,–,–,–,–,–,–,–,–,–,–,–,Percentage damage AMARE [1]: 100%; Percentage damage ECHCG [2]: 100%; Percentage damage SOLNI (Solanum nigrum (SOLNI) [3]): 80%; Percentage damage SETFA (Setaria faberi (SETFA) [4]): 90%; Percentage damage ALOMY [5]: 70%; Percentage damage IPOHE [6]: 0%; Percentage damage AMARE [7]: 100%; Percentage damage ECHCG [8]: 80%; Percentage damage SOLNI (Solanum nigrum (SOLNI) [9]): 90%; Percentage damage SETFA (Setaria faberi (SETFA) [10]): 60%; Percentage damage ALOMY [11]: 70%; Percentage damage IPOHE [12]: 80%
"C=Cc1c(NC2CCC2)nc(-c2ccc(Cl)c(OC)c2F)nc1C(=O)OC [Compound 24, 2-(4-Chloro-2-fluoro-3-methoxyphenyl)-4-cyclobutylamino-5-ethenyl-6-methoxycarbonyl pyrimidine]",100,50,80,0,10,80,100,40,90,10,10,70,–
